Experimental findings from US20240116892A1, “HETEROCYCLIC AMIDE AND UREA COMPOUNDS AS JAK2 INHIBITORS” (Ajax Therapeutics, Inc., priority 2022, published 2024) are described below.

The target in this assay is JAK2 (JH1 domain-catalytic, Y1007F, Y1008F) kinase (Homo sapiens (Human), UniProt O60674, Y1007F/Y1008F). The assay is described as follows: JAK2 JH1 Domain Binding Assay. Particulars: qPCR readout. As for the experimental part:
JAK2 (JH1 domain-catalytic, Y1007F, Y1008F) kinase was expressed as N-terminal fusion to the DNA binding domain of NFkB in transiently transfected HEK293 cells and subsequently tagged with DNA for qPCR detection. Streptavidin-coated magnetic beads were treated with biotinylated small molecule ligands for 30 minutes at room temperature to generate affinity resins for kinase assays. The liganded beads were blocked with excess biotin and washed with blocking buffer (SeaBlock (Pierce), 1% BSA, 0.05% Tween 20, 1 mmol/L DTT) to remove unbound ligand and to reduce nonspecific phage binding. Binding reactions were assembled by combining kinases, liganded affinity beads, and test compounds in 1× binding buffer (1× PBS, 0.05% Tween 20, 0.1% BSA, 1 mmol/L DTT). Test compound was prepared as 111× stocks in 100% DMSO and directly diluted into the assay wells. All reactions were performed in polypropylene 384-well plates in a final volume of 0.02 mL. The assay plates were incubated at room temperature with shaking for 1 hour and the affinity beads were washed with wash buffer (1× PBS, 0.05% Tween 20). The beads were then re-suspended in elution buffer (1× PBS, 0.05% Tween 20, 0.5 μmol/L non-biotinylated affinity ligand) and incubated at room temperature with shaking for 30 minutes. The kinase concentration in the eluate was measured by qPCR.

Each structure is given as a SMILES string. pKd: −log10 of the molar value.

Sequence of JAK2 (JH1 domain-catalytic, Y1007F, Y1008F) kinase (O60674 849-1124 Y1007F/Y1008F): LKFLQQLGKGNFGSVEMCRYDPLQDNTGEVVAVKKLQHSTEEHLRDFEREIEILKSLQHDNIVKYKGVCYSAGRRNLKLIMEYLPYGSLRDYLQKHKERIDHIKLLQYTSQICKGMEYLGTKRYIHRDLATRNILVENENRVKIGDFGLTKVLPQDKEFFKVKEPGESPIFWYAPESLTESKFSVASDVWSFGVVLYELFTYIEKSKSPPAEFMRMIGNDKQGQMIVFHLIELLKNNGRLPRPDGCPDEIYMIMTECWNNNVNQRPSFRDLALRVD

Molecule `CN(C(=O)Nc1cc(C(F)(F)F)cn(C)c1=O)C1CC2(C1)CN(c1cnc3[nH]ccc3n1)C2` [Example I-55, 1-(2-(5H-pyrrolo[2,3-b]pyrazin-2-yl)-2-azaspiro[3.3]heptan-6-yl)-1-methyl-3-(1-methyl-2-oxo-5-(trifluoromethyl)-1,2-dihydropyridin-3-yl)urea] had a negative logarithm of the Kd (pKd) greater than 8.00.
The figure for `CN(C(=O)Nc1cc(C(F)(F)F)cn(C)c1=O)C1CCN(c2cnn3cc(O[C@@H]4CC[C@H]4O)ncc23)CC1` [Example I-129-a, 1-(1-(6-((1R,2R)-2-hydroxycyclobutoxy)pyrazolo[1,5-a]pyrazin-3-yl)piperidin-4-yl)-1-methyl-3-(1-methyl-2-oxo-5-(trifluoromethyl)-1,2-dihydropyridin-3-yl)urea] is greater than 8.00; for `CC(=O)Nc1cnc(N2CCC(N(C)C(=O)Nc3cc(C(F)(F)F)cc(C)n3)CC2)cn1` [Example I-23, N-(5-(4-(1-methyl-3-(6-methyl-4-(trifluoromethyl)pyridin-2-yl)ureido)piperidin-1-yl)pyrazin-2-yl)acetamide] it is greater than 8.00.
The figure for `CN(C(=O)Nc1cc(C(F)(F)F)cn(C)c1=O)[C@H]1CCN(c2cnc3[nH]ncc3c2)CC1(F)F` [Example I-29-b, (S)-1-(3,3-difluoro-1-(1H-pyrazolo[3,4-b]pyridin-5-yl)piperidin-4-yl)-1-methyl-3-(1-methyl-2-oxo-5-(trifluoromethyl)-1,2-dihydropyridin-3-yl)urea] is greater than 8.00; for `CC(=O)Nc1ccc(N2CCC(N(C)C(=O)Nc3cc(C)cc(C(F)(F)F)c3)CC2)cn1` [Example I-12, N-(5-(4-(1-methyl-3-(3-methyl-5-(trifluoromethyl)phenyl)ureido)piperidin-1-yl)pyridin-2-yl)acetamide] it is greater than 8.00.
With `Cc1cc(NC(=O)N(C)C2CCN(c3cnccn3)CC2)cc(C(F)(F)F)c1` [Example I-8, 1-methyl-3-(3-methyl-5-(trifluoromethyl)phenyl)-1-(1-(pyrazin-2-yl)piperidin-4-yl)urea] the figure was 7.30 to 8.00; with `CN(C(=O)Nc1cc(C(F)(F)F)cn(C)c1=O)C1CC2(C1)CN(c1cnc3[nH]ncc3c1)C2` [Example I-57, 1-(2-(1H-pyrazolo[3,4-b]pyridin-5-yl)-2-azaspiro[3.3]heptan-6-yl)-1-methyl-3-(1-methyl-2-oxo-5-(trifluoromethyl)-1,2-dihydropyridin-3-yl)urea], greater than 8.00.
`CN(C(=O)Nc1cc(C(F)(F)F)cn(C)c1=O)C1CC2(C1)CN(c1cnc3[nH]ncc3n1)C2` [Example I-72, 1-(2-(1H-pyrazolo[3,4-b]pyrazin-5-yl)-2-azaspiro[3.3]heptan-6-yl)-1-methyl-3-(1-methyl-2-oxo-5-(trifluoromethyl)-1,2-dihydropyridin-3-yl)urea] had a pKd greater than 8.00.
As to `CN(C(=O)Nc1cc(C(F)(F)F)cn(C)c1=O)[C@@H]1CCN(c2cnc3[nH]ccc3n2)CC1(F)F` (single isomer, unassigned) [Example I-27-a], the pKd was greater than 8.00.
With `COc1c[nH]c2ncc(N3CC[C@H](N(C)C(=O)Nc4cc(C(F)(F)F)cn(C)c4=O)[C@H](F)C3)nc12` [Example I-151, 1-((3R,4S)-3-fluoro-1-(7-methoxy-5H-pyrrolo[2,3-b]pyrazin-2-yl)piperidin-4-yl)-1-methyl-3-(1-methyl-2-oxo-5-(trifluoromethyl)-1,2-dihydropyridin-3-yl)urea] the figure was greater than 8.00; with `CC(=O)Nc1c[nH]c2ncc(N3CC[C@H](N(C)C(=O)Nc4cc(C(F)(F)F)cn(C)c4=O)C(F)(F)C3)cc12` (mixture of isomers) [Example I-172-b, (R)—N-(5-(3,3-difluoro-4-(1-methyl-3-(1-methyl-2-oxo-5-(trifluoromethyl)-1,2-dihydropyridin-3-yl)ureido)piperidin-1-yl)-1H-pyrrolo[2,3-b]pyridin-3-yl)acetamide and (S)—N-(5-(3,3-difluoro-4-(1-methyl-3-(1-methyl-2-oxo-5-(trifluoromethyl)-1,2-dihydropyridin-3-yl)ureido)piperidin-1-yl)-1H-pyrrolo[2,3-b]pyridin-3-yl)acetamide], greater than 8.00.
The figure for `CN(C(=O)Nc1cc(C(F)(F)F)cn(C)c1=O)[C@H]1CCN(c2cnc(NC(=O)C3CC3)cn2)CC1(F)F` (single isomer, unassigned) [Example I-34-b] is greater than 8.00; for `Cn1cc(C(F)(F)F)cc(NC(=O)C2(C3CCN(c4cnc5[nH]cc(F)c5n4)CC3)CC2)c1=O` [Example I-65, 1-(1-(7-fluoro-5H-pyrrolo[2,3-b]pyrazin-2-yl)piperidin-4-yl)-N-(1-methyl-2-oxo-5-(trifluoromethyl)-1,2-dihydropyridin-3-yl)cyclopropane-1-carboxamide] it is greater than 8.00.
Regarding `C[C@@H]1CN(c2cnc3[nH]ncc3c2)CC[C@@H]1N(C)C(=O)Nc1cc(C(F)(F)F)cn(C)c1=O` [Example I-70-a, 1-methyl-1-((3R,4S)-3-methyl-1-(1H-pyrazolo[3,4-b]pyridin-5-yl)piperidin-4-yl)-3-(1-methyl-2-oxo-5-(trifluoromethyl)-1,2-dihydropyridin-3-yl)urea], the pKd was greater than 8.00.
With `CN(C(=O)Nc1cc(C(F)(F)F)cn(C)c1=O)[C@H]1CC=C(c2cnc3[nH]ncc3n2)CC1` (single isomer, unassigned) [Example I-160-b, (S)- or (R)-1-(4-(1H-pyrazolo[3,4-b]pyrain-5-yl)cyclohex-3-en-1-yl)-1-methyl-3-(2-methyl-2-oxo-5-(trifluoromethyl)-1,2-dihydropyridin-3-yl)urea] the figure was greater than 8.00; with `Cc1n[nH]c2ncc(N3CCC(N(C)C(=O)Nc4cc(C(F)(F)F)cn(C)c4=O)CC3)cc12` [Example I-28, 1-methyl-1-(1-(3-methyl-1H-pyrazolo[3,4-b]pyridin-5-yl)piperidin-4-yl)-3-(1-methyl-2-oxo-5-(trifluoromethyl)-1,2-dihydropyridin-3-yl)urea], greater than 8.00.
In turn, `C[C@@H]1C[C@H](N(C)C(=O)Nc2cc(C(F)(F)F)cn(C)c2=O)CCN1c1cnc2[nH]ccc2n1` [Example I-126-b, 1-methyl-1-((2R,4R)-2-methyl-1-(5H-pyrrolo[2,3-b]pyrazin-2-yl)piperidin-4-yl)-3-(1-methyl-2-oxo-5-(trifluoromethyl)-1,2-dihydropyridin-3-yl)urea] showed a pKd greater than 8.00.
With `COc1n[nH]c2ncc(N3CC[C@H](N(C)C(=O)Nc4cc(C(F)(F)F)cn(C)c4=O)[C@@H](OC)C3)cc12` [Example I-108-b, 1-((3S,4S)-3-methoxy-1-(3-methoxy-1H-pyrazolo[3,4-b]pyridin-5-yl)piperidin-4-yl)-1-methyl-3-(1-methyl-2-oxo-5-(trifluoromethyl)-1,2-dihydropyridin-3-yl)urea] the figure was 7.30 to 8.00; with `CN(C(=O)Nc1cc(C(F)(F)F)cn(C)c1=O)[C@H]1CCN(c2cnc3[nH]c(=O)[nH]c3c2)C[C@H]1F` [Example I-100-a, 1-((3R,4S)-3-fluoro-1-(2-oxo-2,3-dihydro-1H-imidazo[4,5-b]pyridin-6-yl)piperidin-4-yl)-1-methyl-3-(1-methyl-2-oxo-5-(trifluoromethyl)-1,2-dihydropyridin-3-yl)urea], greater than 8.00; with `Cn1cc(C(F)(F)F)cc(NC(=O)C2(C3CCN(c4cnc5[nH]ccc5n4)CC3)CC2)c1=O` [Example I-85, 1-(1-(5H-pyrrolo[2,3-b]pyrazin-2-yl)piperidin-4-yl)-N-(1-methyl-2-oxo-5-(trifluoromethyl)-1,2-dihydropyridin-3-yl)cyclopropane-1-carboxamide], greater than 8.00.
Molecule `Cc1cc2nc(N3CCC(N(C)C(=O)Nc4cc(C(F)(F)F)cn(C)c4=O)C(F)(F)C3)cnc2[nH]1` (single isomer, unassigned) [Example I-37-a, (R)- or (S)-1-(3,3-difluoro-1-(6-methyl-5H-pyrrolo[2,3-b]pyrazin-2-yl)piperidin-4-yl)-1-methyl-3-(1-methyl-2-oxo-5-(trifluoromethyl)-1,2-dihydropyridin-3-yl)urea] showed a pKd greater than 8.00.
The figure for `COc1c[nH]c2ncc([C@H]3CC[C@H](N(C)C(=O)Nc4cc(C(F)(F)F)cn(C)c4=O)CC3)nc12` [Example I-170, trans-1-(4-(7-methoxy-5H-pyrrolo[2,3-b]pyrazin-2-yl)cyclohexyl)-1-methyl-3-(1-methyl-2-oxo-5-(trifluoromethyl)-1,2-dihydropyridin-3-yl)urea] is greater than 8.00; for `CN(C(=O)Nc1cc(C(F)(F)F)n([C@@H]2CCOC2)n1)C1CCN(c2cnc3[nH]ncc3c2)CC1` [Example I-180, (R)-1-(1-(1H-pyrazolo[3,4-b]pyridin-5-yl)piperidin-4-yl)-1-methyl-3-(1-(tetrahydrofuran-3-yl)-5-(trifluoromethyl)-1H-pyrazol-3-yl)urea] it is greater than 8.00; for `CC(=O)Nc1c[nH]c2ncc(N3CC[C@@H](N(C)C(=O)Nc4cc(C(F)(F)F)cn(C)c4=O)C(F)(F)C3)cc12` (mixture of isomers) [Example I-172-a, (R)—N-(5-(3,3-difluoro-4-(1-methyl-3-(1-methyl-2-oxo-5-(trifluoromethyl)-1,2-dihydropyridin-3-yl)ureido)piperidin-1-yl)-1H-pyrrolo[2,3-b]pyridin-3-yl)acetamide and (S)—N-(5-(3,3-difluoro-4-(1-methyl-3-(1-methyl-2-oxo-5-(trifluoromethyl)-1,2-dihydropyridin-3-yl)ureido)piperidin-1-yl)-1H-pyrrolo[2,3-b]pyridin-3-yl)acetamide] it is greater than 8.00.
